Data from ChEMBL document CHEMBL1137113, “A convenient and biogenetic type synthesis of few naturally occurring chromeno dihydrochalcones and their in vitro antileishmanial activity” (2004).
Activity calls are given as the source filed them. The rule behind the calls is not given here.

How the values were obtained:
[1] = tested on: Leishmania donovani; test: In-vitro antileishmanial activity was tested against intracellular amastigotes of Leishmania donovani at dose 50 ug/mL; IA is inactive; type: functional, organism-based
[2] = tested on: Leishmania donovani; test: In-vitro antileishmanial activity was tested against extracellular promastigotes of Leishmania donovani at dose of 50 ug/mL; type: functional
[3] = tested on: Leishmania donovani; test: In-vitro antileishmanial activity was tested against intracellular amastigotes of Leishmania donovani at dose 50 ug/mL; type: functional
[4] = tested on: Leishmania donovani; test: In-vitro antileishmanial activity was tested against intracellular amastigotes of Leishmania donovani at dose 50 ug/mL; Toxic; type: functional, organism-based
[5] = tested on: Leishmania donovani; test: In-vitro antileishmanial activity was tested against extracellular promastigotes of Leishmania donovani at dose of 50 ug/mL; IA is inactive; type: functional, organism-based
[6] = tested on: Leishmania donovani; test: In-vitro antileishmanial activity was tested against extracellular promastigotes of Leishmania donovani at dose of 5 ug/mL; type: functional
[7] = tested on: Leishmania donovani; test: In-vitro antileishmanial activity was tested against intracellular amastigotes of Leishmania donovani at dose 5 ug/mL; type: functional

| Molecule | inhibition at 50 µg/mL [2] | inhibition at 50 µg/mL [3] | further results |
| --- | --- | --- | --- |
| CC1(C)C=Cc2c(ccc(C(=O)CCc3ccc(O)c(O)c3)c2O)O1 | 30% | – | inhibition [1]: inactive |
| CC1(C)C=Cc2c(ccc(C(=O)/C=C/c3ccc(O)cc3)c2O)O1 | 84% | 74% | – |
| COc1ccc(/C=C/C(=O)c2ccc(O)cc2O)cc1 | 60% | 15% | – |
| COc1ccc(/C=C/C(=O)c2ccc3c(c2O)C=CC(C)(C)O3)cc1 | 85% | 53% | – |
| CC1(C)C=Cc2c(ccc(C(=O)CCc3ccc(O)cc3)c2O)O1 | 89% | – | inhibition [4]: Toxic |
| COc1ccc(CCC(=O)c2ccc(O)cc2O)cc1OC | 79% | – | inhibition [4]: Toxic |
| COc1ccc(CCC(=O)c2ccc3c(c2O)C=CC(C)(C)O3)cc1OC | – | 22% | inhibition [5]: inactive |
| N=C(N)c1ccc(OCCCCCOc2ccc(C(=N)N)cc2)cc1 [PENTAMIDINE] | – | – | inhibition at 5 µg/mL [6]: 97%; inhibition at 5 µg/mL [7]: 50% |
| COc1ccc(CCC(=O)c2ccc3c(c2O)C=CC(C)(C)O3)cc1 | 78% | 47% | – |
| Stibanate | – | – | inhibition [5]: inactive; inhibition [3]: 85% |
